21 molecules from patent publication US10308644B2, “Heterocyclic compounds as immunomodulators” (Incyte Corporation, priority 2016, dated 2019) can be followed below.

The assay addresses PD-1/PD-L1 (Homo sapiens (Human), UniProt Q9NZQ7). In words: PD-1/PD-L1 Homogeneous Time-Resolved Fluorescence (HTRF) Binding Assay. As to conditions: recombinant human PD-1 (3 nM) and PD-L1 (10 nM), 25° C., PBS pH 7.4. Summed up:
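Fc-tagged human PD-1 (25-167, 3 nM) and His-tagged PD-L1 (19-238, 10 nM) preincubated with inhibitor 40 min in PBS pH 7.4, 0.05% Tween-20, 0.1% BSA, 1% DMSO, 25 °C. Binding detected by HTRF (Eu anti-IgG/APC anti-His, 665/620 nm) after 60 min; IC50 from percent control activity.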
Background: TR-FRET usually uses a lanthanide donor and a delayed reading to cut background.

pIC50: −log10 of the molar value.

PD-1/PD-L1, sequence (Q9NZQ7 19-238): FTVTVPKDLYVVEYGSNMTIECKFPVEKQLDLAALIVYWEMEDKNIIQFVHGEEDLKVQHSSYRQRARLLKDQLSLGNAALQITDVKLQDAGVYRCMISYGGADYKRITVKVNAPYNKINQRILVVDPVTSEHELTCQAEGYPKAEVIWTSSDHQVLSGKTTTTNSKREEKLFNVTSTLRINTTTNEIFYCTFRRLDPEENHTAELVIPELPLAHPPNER

For the molecule `Cc1c(-c2nc3c(o2)CN(C(=O)CN2CC[C@@H](C(=O)O)C2)C3)cccc1-c1cccc(-c2nc3cc(CN4CC[C@@H](O)C4)cc(C#N)c3o2)c1C` [Example 132, (R)-1-(2-(2-(3′-(7-cyano-5-(((R)-3-hydroxypyrrolidin-1-yl)methyl)benzo[d]oxazol-2-yl)-2,2′-dimethyl-[1,1′-biphenyl]-3-yl)-4,6-dihydro-5H-pyrrolo[3,4-d]oxazol-5-yl)-2-oxoethyl)pyrrolidine-3-carboxylic acid], the pIC50 – broadly, the IC50 on a negative log10 scale, so that one unit is a factor of ten – is at least 8.00. `Cc1c(-c2nc3cc(CN[C@H]4CC[C@H](C(=O)O)CC4)cc(C#N)c3o2)cccc1-c1cccc(NC(=O)c2nc3c(n2C)CCN(C)C3)c1Cl` [Example 91, (1R,4R)-4-((2-(2′-chloro-3′-(1,5-dimethyl-4,5,6,7-tetrahydro-1H-imidazo[4,5-c]pyridine-2-carboxamido)-2-methylbiphenyl-3-yl)-7-cyanobenzo[d]oxazol-5-yl)methylamino)cyclohexanecarboxylic acid]: the pIC50 was at least 8.00. In the case of `Cc1c(Nc2nccc3cc(CN[C@H](C)CO)cnc23)cccc1-c1cccc(-c2nc3cc(CN4CCC(C(=O)O)CC4)cc(C#N)c3o2)c1C` [Example 202, (R)-1-((7-cyano-2-(3′-(3-((1-hydroxypropan-2-ylamino)methyl)-1,7-naphthyridin-8-ylamino)-2,2′-dimethylbiphenyl-3-yl)benzo[d]oxazol-5-yl)methyl)piperidine-4-carboxylic acid] it was at least 8.00; in that of `Cc1c(Nc2nccc3cc(CNCC(C)(C)O)cnc23)cccc1-c1cccc(-c2nc3cc(CN4CCCC[C@H]4C(=O)O)cc(Cl)c3o2)c1C` [Example 4, (S)-1-((7-chloro-2-(3′-((3-(((2-hydroxy-2-methylpropyl)amino)methyl)-1,7-naphthyridin-8-yl)amino)-2,2′-dimethyl-[1,1′-biphenyl]-3-yl)benzo[d]oxazol-5-yl)methyl)piperidine-2-carboxylic acid], at least 8.00; in that of `Cc1c(-c2nc3c(o2)CN(C(=O)CN(C)C)C3)cccc1-c1cccc(-c2nc3cc(CN4CC(C(=O)O)C4)cc(C#N)c3o2)c1C` [Example 123, 1-((7-cyano-2-(3′-(5-(dimethylglycyl)-5,6-dihydro-4H-pyrrolo[3,4-d]oxazol-2-yl)-2,2′-dimethyl-[1,1′-biphenyl]-3-yl)benzo[d]oxazol-5-yl)methyl)azetidine-3-carboxylic acid], at least 8.00. In the case of `Cc1c(-c2nc3c(o2)CN(C(=O)CN2CCN(C)CC2)C3)cccc1-c1cccc(-c2nc3cc(CN4CC[C@@](C)(C(=O)O)C4)cc(C#N)c3o2)c1C` [Example 254, (R)-1-((7-cyano-2-(2,2′-dimethyl-3′-(5-(2-(4-methylpiperazin-1-yl)acetyl)-5,6-dihydro-4H-pyrrolo[3,4-d]oxazol-2-yl)-[1,1′-biphenyl]-3-yl)benzo[d]oxazol-5-yl)methyl)-3-methylpyrrolidine-3-carboxylic acid] it was at least 8.00. `Cc1c(-c2nc3cc(CN4CC[C@@](C)(C(=O)O)C4)cc(C#N)c3o2)cccc1-c1cccc(Nc2nccc3cc(CN4CC[C@H](O)C4)cnc23)c1Cl` [Example 34, (R)-1-((2-(2′-chloro-3′-(3-(((S)-3-hydroxypyrrolidin-1-yl)methyl)-1,7-naphthyridin-8-ylamino)-2-methylbiphenyl-3-yl)-7-cyanobenzo[d]oxazol-5-yl)methyl)-3-methylpyrrolidine-3-carboxylic acid]: the pIC50 is at least 8.00. Regarding `Cc1c(-c2nc3c(o2)CN(C(=O)CN(C)C)C3)cccc1-c1cccc(-c2nc3cc(CN4CCC(C(=O)O)CC4)cc(C#N)c3o2)c1C` [Example 246, 1-((7-cyano-2-(3′-(5-(dimethylglycyl)-5,6-dihydro-4H-pyrrolo[3,4-d]oxazol-2-yl)-2,2′-dimethyl-[1,1′-biphenyl]-3-yl)benzo[d]oxazol-5-yl)methyl)piperidine-4-carboxylic acid], the pIC50 was at least 8.00. `Cc1c(-c2nc3cc(CN4CC[C@@H](C(=O)O)C4)cc(C#N)c3o2)cccc1-c1cccc(NC(=O)c2nc3c(n2C)CC(C)NC3)c1Cl` (stereo partly drawn) [Example 159, (3R)-1-((2-(2′-chloro-3′-(1,6-dimethyl-4,5,6,7-tetrahydro-1H-imidazo[4,5-c]pyridine-2-carboxamido)-2-methylbiphenyl-3-yl)-7-cyanobenzo[d]oxazol-5-yl)methyl)pyrrolidine-3-carboxylic acid]: the pIC50 is at least 8.00. Then `CNC(=O)[C@@H]1CCN(Cc2cc(C#N)c3oc(-c4cccc(-c5cccc(-c6nc7c(s6)CN(C(C)C)CC7)c5C)c4C)nc3c2)C1` [Example 117, (R)-1-((7-cyano-2-(3′-(5-isopropyl-4,5,6,7-tetrahydrothiazolo[5,4-c]pyridin-2-yl)-2,2′-dimethyl-[1,1′-biphenyl]-3-yl)benzo[d]oxazol-5-yl)methyl)-N-methylpyrrolidine-3-carboxamide], with at least 8.00; and `Cc1c(-c2nc3cc(CN4CC[C@@H](O)C4)cc(Cl)c3o2)cccc1-c1cccc(NC(=O)c2cc(CN3CC[C@@H](C(=O)O)C3)cn(C)c2=O)c1Cl` [Example 151, (R)-1-((5-(2-chloro-3′-(7-chloro-5-(((R)-3-hydroxypyrrolidin-1-yl)methyl)benzo[d]oxazol-2-yl)-2′-methylbiphenyl-3-ylcarbamoyl)-1-methyl-6-oxo-1,6-dihydropyridin-3-yl)methyl)pyrrolidine-3-carboxylic acid], with at least 8.00; and `Cc1c(Nc2nccc3cc(CN4CC[C@@H](C(=O)O)C4)cnc23)cccc1-c1cccc(-c2nc3cc(CN[C@@H](C)CO)cc(C#N)c3o2)c1C` [Example 211, (R)-1-((8-(3′-(7-cyano-5-(((S)-1-hydroxypropan-2-ylamino)methyl)benzo[d]oxazol-2-yl)-2,2′-dimethylbiphenyl-3-ylamino)-1,7-naphthyridin-3-yl)methyl)pyrrolidine-3-carboxylic acid], with at least 8.00. In the case of `Cc1c(COc2cc(OCc3cncc(C#N)c3)c(CNCCO)cc2Cl)cccc1-c1cccc(-c2nc3cc(CN4CC[C@@H](C(=O)O)C4)cc(Cl)c3o2)c1C` [Example 150, (R)-1-((7-chloro-2-(3′-((2-chloro-5-((5-cyanopyridin-3-yl)methoxy)-4-(((2-hydroxyethyl)amino)methyl)phenoxy)methyl)-2,2′-dimethyl-[1,1′-biphenyl]-3-yl)benzo[d]oxazol-5-yl)methyl)pyrrolidine-3-carboxylic acid] it was 7.00 to 8.00. Turning to `CCN1CCc2c(nc(C(=O)Nc3cccc(-c4cccc(-c5nc6cc(CN7CC[C@H](C(=O)O)C7)cc(C#N)c6o5)c4C)c3Cl)n2C)C1` [Example 142, (S)-1-((2-(2′-chloro-3′-(5-ethyl-1-methyl-4,5,6,7-tetrahydro-1H-imidazo[4,5-c]pyridine-2-carboxamido)-2-methyl-[1,1′-biphenyl]-3-yl)-7-cyanobenzo[d]oxazol-5-yl)methyl)pyrrolidine-3-carboxylic acid], the pIC50 is at least 8.00. Then `Cc1c(-c2nc3cc(CN4CC[C@@H](C(=O)O)C4)cc(C#N)c3o2)cccc1-c1cccc(-c2nc3c(s2)CN(C)CC3)c1C` [Example 73], with at least 8.00; and `Cc1c(Nc2nccc3cc(CN4CC[C@@H](O)C4)cnc23)cccc1-c1cccc(-c2nc3cc(CN4CC(C(=O)O)C4)cc(C#N)c3o2)c1C` [Example 85, (R)-1-((7-cyano-2-(3′-(3-((3-hydroxypyrrolidin-1-yl)methyl)-1,7-naphthyridin-8-ylamino)-2,2′-dimethylbiphenyl-3-yl)benzo[d]oxazol-5-yl)methyl)azetidine-3-carboxylic acid], with at least 8.00; and `CCN1CCc2c(nc(C(=O)Nc3cccc(-c4cccc(-c5nc6cc(CN7CC[C@@](C)(C(=O)O)C7)cc(C#N)c6o5)c4C)c3Cl)n2C)C1` [Example 95, (R)-1-((2-(2′-chloro-3′-(5-ethyl-1-methyl-4,5,6,7-tetrahydro-1H-imidazo[4,5-c]pyridine-2-carboxamido)-2-methylbiphenyl-3-yl)-7-cyanobenzo[d]oxazol-5-yl)methyl)-3-methylpyrrolidine-3-carboxylic acid], with at least 8.00. In the case of `Cc1c(NC(=O)c2nc3c(n2C)CCN(C)C3)cccc1-c1cccc(-c2nc3cc(CN4CC[C@H](C(=O)O)C4)cc(C#N)c3o2)c1C` [Example 36, (S)-1-((7-cyano-2-(3′-(1,5-dimethyl-4,5,6,7-tetrahydro-1H-imidazo[4,5-c]pyridine-2-carboxamido)-2,2′-dimethylbiphenyl-3-yl)benzo[d]oxazol-5-yl)methyl)pyrrolidine-3-carboxylic acid] it was at least 8.00; in that of `Cc1c(-c2nc3cc(CN4CCC(C(=O)O)CC4)cc(C#N)c3o2)cccc1-c1cccc(NC(=O)c2nc3c(n2C)CCN(CCO)C3)c1Cl` [Example 156, 1-((2-(2′-chloro-3′-(5-(2-hydroxyethyl)-1-methyl-4,5,6,7-tetrahydro-1H-imidazo[4,5-c]pyridine-2-carboxamido)-2-methylbiphenyl-3-yl)-7-cyanobenzo[d]oxazol-5-yl)methyl)piperidine-4-carboxylic acid], at least 8.00.

Turning to `Cc1c(Nc2nccc3cc(C4=NCCN4)cnc23)cccc1-c1cccc(-c2nc3cc(CN4CC[C@@H](C(=O)O)C4)cc(C#N)c3o2)c1C` [Example 166, (R)-1-((7-cyano-2-(3′-(3-(4,5-dihydro-1H-imidazol-2-yl)-1,7-naphthyridin-8-ylamino)-2,2′-dimethylbiphenyl-3-yl)benzo[d]oxazol-5-yl)methyl)pyrrolidine-3-carboxylic acid], the pIC50 was at least 8.00. As to `Cc1c(Nc2nccc3cc(C4CN(CCO)C4)cnc23)cccc1-c1cccc(-c2nc3cc(CN4CC[C@@H](C(=O)O)C4)cc(C#N)c3o2)c1C` [Example 96, (R)-1-((7-cyano-2-(3′-(3-(1-(2-hydroxyethyl)azetidin-3-yl)-1,7-naphthyridin-8-ylamino)-2,2′-dimethylbiphenyl-3-yl)benzo[d]oxazol-5-yl)methyl)pyrrolidine-3-carboxylic acid], the pIC50 was at least 8.00.
